Experimental data published in the supplement of paper PMC10627819.

Columns and labels:
S. aureus Newman [1] = assay: fitness (endpoint OD595 vs no drug) (fraction); higher = more growth
In short: (§1)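 Bacterial fitness was scored as optical density at the stationary-phase transition relative to the robust mean of no-drug control wells. Scores are capped at 1. The growth data were OD595 readings every 30 min for 14 h at 37 °C, background-subtracted against the first reading, from 384-well plates inoculated at OD595 0.01 in TSB, LB Lennox or CY.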

B. subtilis 168 [2] = assay: as above
In short: as §1

S. pneumoniae D39V [3] = assay: as above
In short: as §1

S. aureus DSM 20231 [4] = assay: as above
In short: as §1

S. aureus Newman [5] = assay: Bliss interaction score (quartile over a dose matrix) (fitness difference); higher = more antagonism (negative = synergy)
In short: (§2)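 Combination data were used to infer fitness under each single drug. Fitness is the OD595 at entry into stationary phase divided by the robust mean of the plate's no-drug wells, with a cap of 1. The Bliss score is the observed minus the expected product fitness, summarised by quartiles over technical, biological and donor/recipient replicates.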

B. subtilis 168 [6] = assay: as above
In short: as §2

S. pneumoniae D39V [7] = assay: as above
In short: as §2

S. aureus DSM 20231 [8] = assay: as above
In short: as §2
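For Bliss interaction score (quartile over a dose matrix) in this document: first quartile when negative (synergy) and third quartile when positive (antagonism).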

CO/N=C(\C(=O)N[C@@H]1C(=O)N2C(C(=O)O)=C(COC(C)=O)CS[C@H]12)c1csc(N)n1 [Cefotaxime] + CCN(CC)CCOC(=O)c1ccc(N)cc1 [Procaine]
fitness, one replicate
Details	partner 85.5 µg/mL	partner 171 µg/mL	partner 342 µg/mL
B. subtilis 168 [2], first compound 0.00775 µg/mL	0.834	0.848	0.811
B. subtilis 168 [2], first compound 0.0155 µg/mL	0.701	0.691	0.64
B. subtilis 168 [2], first compound 0.031 µg/mL	0.583	0.572	0.561
S. aureus DSM 20231 [4], first compound 0.039 µg/mL	0.632	0.766	0.762
S. aureus Newman [1], first compound 0.078 µg/mL	0.608	0.612	0.595
S. aureus Newman [1], first compound 0.156 µg/mL	0.454	0.459	0.438
S. aureus Newman [1], first compound 0.312 µg/mL	0.276	0.255	0.264

fitness
Details	partner 85.5 µg/mL	partner 171 µg/mL	partner 342 µg/mL
B. subtilis 168 [2], first compound 0.5 µg/mL	0.243	0.225	0.259
B. subtilis 168 [2], first compound 1 µg/mL	0.165	0.125	0.169
B. subtilis 168 [2], first compound 2 µg/mL	0.0861	0.0682	0.118
S. aureus DSM 20231 [4], first compound 0.078 µg/mL	0.721	0.786	0.77
S. aureus DSM 20231 [4], first compound 0.156 µg/mL	0.62	0.703	0.712
S. aureus DSM 20231 [4], first compound 0.312 µg/mL	0.579	0.67	0.664
S. aureus Newman [1], first compound 0.625 µg/mL	0.169	0.111	0.139
S. aureus Newman [1], first compound 1.25 µg/mL	0.0581	0.0383	0.0412
S. aureus Newman [1], first compound 2.5 µg/mL	0.0238	0.0269	0.0485
S. pneumoniae D39V [3], first compound 0.0018 µg/mL	≥ 1	≥ 1	≥ 1
S. pneumoniae D39V [3], first compound 0.0035 µg/mL	0.954	≥ 1	0.945
S. pneumoniae D39V [3], first compound 0.007 µg/mL	0.904	0.92	0.844

Details	Bliss interaction score
B. subtilis 168 [6]	0.0852
S. aureus DSM 20231 [8]	-0.0909
S. aureus Newman [5]	-0.0467
S. pneumoniae D39V [7]	-0.0264

CO/N=C(\C(=O)N[C@@H]1C(=O)N2C(C(=O)O)=C(COC(C)=O)CS[C@H]12)c1csc(N)n1 [Cefotaxime] + CN1C2=CC=CC=C2N=C3C1=CC=CC3=O [Pyocyanin]
fitness, one replicate
Details	partner 1.25 µg/mL	partner 2.5 µg/mL	partner 5 µg/mL
B. subtilis 168 [2], first compound 0.00775 µg/mL	0.775	0.712	0.534
B. subtilis 168 [2], first compound 0.0155 µg/mL	0.665	0.543	0.407
B. subtilis 168 [2], first compound 0.031 µg/mL	0.522	0.462	0.35
S. aureus DSM 20231 [4], first compound 0.039 µg/mL	0.748	0.738	0.512
S. aureus Newman [1], first compound 0.039 µg/mL	0.677	0.696	0.424
S. aureus Newman [1], first compound 0.625 µg/mL	0.0517	0.0483	0.0237
S. aureus Newman [1], first compound 1.25 µg/mL	0.0559	0.0861	0.0706
S. aureus Newman [1], first compound 2.5 µg/mL	0.0452	0.0518	0.0704

fitness
Details	partner 0.325 µg/mL	partner 0.65 µg/mL	partner 1.25 µg/mL	partner 1.3 µg/mL	partner 2.5 µg/mL	partner 5 µg/mL
B. subtilis 168 [2], first compound 0.5 µg/mL	–	–	0.291	–	0.264	0.229
B. subtilis 168 [2], first compound 1 µg/mL	–	–	0.144	–	0.102	0.111
B. subtilis 168 [2], first compound 2 µg/mL	–	–	0.0757	–	0.0908	0.0747
S. aureus DSM 20231 [4], first compound 0.078 µg/mL	–	–	0.746	–	0.766	0.55
S. aureus DSM 20231 [4], first compound 0.156 µg/mL	–	–	0.757	–	0.746	0.511
S. aureus DSM 20231 [4], first compound 0.312 µg/mL	–	–	0.676	–	0.671	0.474
S. aureus Newman [1], first compound 0.078 µg/mL	–	–	0.671	–	0.654	0.399
S. aureus Newman [1], first compound 0.156 µg/mL	–	–	0.527	–	0.552	0.354
S. aureus Newman [1], first compound 0.312 µg/mL	–	–	0.311	–	0.319	0.204
S. pneumoniae D39V [3], first compound 0.0018 µg/mL	0.992	≥ 1	–	0.904	–	–
S. pneumoniae D39V [3], first compound 0.0035 µg/mL	0.98	≥ 1	–	0.871	–	–
S. pneumoniae D39V [3], first compound 0.007 µg/mL	0.934	0.947	–	0.839	–	–

Details	Bliss interaction score
B. subtilis 168 [6]	0.0372
S. aureus DSM 20231 [8]	0.0641
S. aureus Newman [5]	0.0647
S. pneumoniae D39V [7]	0.0458

CO/N=C(\C(=O)N[C@@H]1C(=O)N2C(C(=O)O)=C(COC(C)=O)CS[C@H]12)c1csc(N)n1 [Cefotaxime] + CN(N=O)C(=O)N[C@@H](C=O)[C@@H](O)[C@H](O)[C@H](O)CO [Streptozotocin]
fitness
Details	first compound 0.0018 µg/mL	first compound 0.0035 µg/mL	first compound 0.007 µg/mL	first compound 0.078 µg/mL	first compound 0.156 µg/mL	first compound 0.312 µg/mL
S. aureus DSM 20231 [4], partner 0.15 µg/mL	–	–	–	0.691	0.653	0.609
S. aureus DSM 20231 [4], partner 0.3 µg/mL	–	–	–	0.612	0.617	0.614
S. aureus DSM 20231 [4], partner 0.6 µg/mL	–	–	–	0.552	0.564	0.521
S. aureus Newman [1], partner 0.15 µg/mL	–	–	–	0.641	0.476	0.253
S. aureus Newman [1], partner 0.3 µg/mL	–	–	–	0.539	0.389	0.133
S. aureus Newman [1], partner 0.6 µg/mL	–	–	–	0.403	0.204	0.0516
S. pneumoniae D39V [3], partner 1.2 µg/mL	0.957	0.963	0.889	–	–	–
S. pneumoniae D39V [3], partner 2.4 µg/mL	0.97	0.964	0.775	–	–	–
S. pneumoniae D39V [3], partner 4.8 µg/mL	0.978	0.938	0.861	–	–	–

fitness, one replicate
Details	partner 0.15 µg/mL	partner 0.3 µg/mL	partner 0.6 µg/mL
B. subtilis 168 [2], first compound 0.00775 µg/mL	0.767	0.832	0.787
B. subtilis 168 [2], first compound 0.0155 µg/mL	0.721	0.743	0.715
B. subtilis 168 [2], first compound 0.031 µg/mL	0.526	0.518	0.502
B. subtilis 168 [2], first compound 0.5 µg/mL	0.34	0.342	0.347
B. subtilis 168 [2], first compound 1 µg/mL	0.132	0.136	0.146
B. subtilis 168 [2], first compound 2 µg/mL	0.0874	0.126	0.183
S. aureus DSM 20231 [4], first compound 0.039 µg/mL	0.756	0.675	0.551
S. aureus Newman [1], first compound 0.625 µg/mL	0.0252	0.0161	0
S. aureus Newman [1], first compound 1.25 µg/mL	0.023	0.0017	0
S. aureus Newman [1], first compound 2.5 µg/mL	0.0355	0.0302	0

Details	Bliss interaction score
B. subtilis 168 [6]	0.0848
S. aureus DSM 20231 [8]	-0.0448
S. aureus Newman [5]	-0.0599
S. pneumoniae D39V [7]	0.0325
